According to the supplement of paper PMC10307832:

Experiments:
Assay in all cases: relative viability (nuclei count vs DMSO), 5 days (fraction); higher = more cells survive
[1] = compound: CNC(=O)c1cc(Oc2ccc(NC(=O)Nc3ccc(Cl)c(C(F)(F)F)c3)cc2)ccn1 [Sorafenib]
How it was run: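 Five library-drug doses, separated by factors of √10, were pinned into 1536-well plates holding lung cancer cell lines after an overnight stay at 37 °C. Cells were fixed, permeabilised and Hoechst-stained in one step after 5 days without medium change, then imaged at 4×. Viability compares treated-well with vehicle-well nuclei, counted in MetaXpress, as a median across plates. Passing plates had control CV below 25% and at least one doubling.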

[2] = compound: CNC(=O)c1cc(Oc2ccc(NC(=O)Nc3ccc(Cl)c(C(F)(F)F)c3)cc2)ccn1 [Sorafenib] + CCNC(=O)c1noc(-c2cc(C(C)C)c(O)cc2O)c1-c1ccc(CN2CCOCC2)cc1 [Luminespib] (partner 0.01 µM)
How it was run: (§1)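 Dosing by pin tool came one day after lung cancer cell lines were seeded in 1536-well plates, using either one drug or a fixed anchor-drug dose plus five library-drug doses (not always all listed) in √10 steps. After 5 days, nuclei were counted on 4× images. Relative viability is treated-well nuclei count divided by vehicle-well nuclei count, and values are medians of duplicate plates.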

[3] = compound: CNC(=O)c1cc(Oc2ccc(NC(=O)Nc3ccc(Cl)c(C(F)(F)F)c3)cc2)ccn1 [Sorafenib] + CS(=O)(=O)CCNCc1ccc(-c2ccc3ncnc(Nc4ccc(OCc5cccc(F)c5)c(Cl)c4)c3c2)o1 [Lapatinib] (partner 2 µM)
How it was run: as §1

[4] = compound: CNC(=O)c1cc(Oc2ccc(NC(=O)Nc3ccc(Cl)c(C(F)(F)F)c3)cc2)ccn1 [Sorafenib] + C[C@@H](Oc1cc(-c2cnn(C3CCNCC3)c2)cnc1N)c1c(Cl)ccc(F)c1Cl [Crizotinib] (partner 1 µM)
How it was run: as §1

[5] = compound: CNC(=O)c1cc(Oc2ccc(NC(=O)Nc3ccc(Cl)c(C(F)(F)F)c3)cc2)ccn1 [Sorafenib] + O=C(CCCCCCC(=O)Nc1ccccc1)NO [Vorinostat] (partner 1 µM)
How it was run: as §1

Cell Line: PC-3 [JPC-3]
- relative viability ([1]; 0.08 µM): 1.15
- relative viability ([1]; 0.253 µM): 0.973
- relative viability ([1]; 2.53 µM): 1.09
- relative viability ([2]; first compound 0.08 µM): 0.67
- relative viability ([2]; first compound 0.253 µM): 0.687
- relative viability ([2]; first compound 2.53 µM): 0.717
- relative viability ([2]; first compound 8 µM): 0.637
- relative viability ([3]; first compound 0.08 µM): 0.499
- relative viability ([3]; first compound 0.253 µM): 0.439
- relative viability ([3]; first compound 2.53 µM): 0.502
- relative viability ([3]; first compound 8 µM): 0.537
- relative viability ([4]; first compound 0.08 µM): 0.978
- relative viability ([4]; first compound 0.253 µM): 0.957
- relative viability ([4]; first compound 2.53 µM): 0.985
- relative viability ([5]; first compound 0.08 µM): 0.886
- relative viability ([5]; first compound 0.253 µM): 0.555
- relative viability ([5]; first compound 2.53 µM): 1.1
- relative viability ([5]; first compound 8 µM): 0.883

Cell Line: PC-14
- relative viability ([1]; 0.08 µM): 1.07
- relative viability ([1]; 0.253 µM): 0.928
- relative viability ([1]; 2.53 µM): 1.05
- relative viability ([2]; first compound 0.08 µM): 0.138
- relative viability ([2]; first compound 0.253 µM): 0.138
- relative viability ([2]; first compound 2.53 µM): 0.19
- relative viability ([2]; first compound 8 µM): 0.138
- relative viability ([3]; first compound 0.08 µM): 0.434
- relative viability ([3]; first compound 0.253 µM): 0.303
- relative viability ([3]; first compound 2.53 µM): 0.401
- relative viability ([3]; first compound 8 µM): 0.534
- relative viability ([4]; first compound 0.08 µM): 0.935
- relative viability ([4]; first compound 0.253 µM): 1
- relative viability ([4]; first compound 2.53 µM): 0.967
- relative viability ([4]; first compound 8 µM): 0.533
- relative viability ([5]; first compound 0.08 µM): 0.833
- relative viability ([5]; first compound 0.253 µM): 0.721
- relative viability ([5]; first compound 2.53 µM): 0.641
- relative viability ([5]; first compound 8 µM): 0.481

Cell Line: RERF-LC-KJ
- relative viability ([1]; 0.08 µM): 1.01
- relative viability ([1]; 0.253 µM): 0.903
- relative viability ([1]; 2.53 µM): 0.976
- relative viability ([1]; 8 µM): 0.941
- relative viability ([2]; first compound 0.08 µM): 1.2
- relative viability ([2]; first compound 0.253 µM): 1.26
- relative viability ([2]; first compound 2.53 µM): 1.24
- relative viability ([2]; first compound 8 µM): 0.404
- relative viability ([3]; first compound 0.08 µM): 0.917
- relative viability ([3]; first compound 0.253 µM): 0.782
- relative viability ([3]; first compound 2.53 µM): 0.838
- relative viability ([3]; first compound 8 µM): 0.778
- relative viability ([4]; first compound 0.08 µM): 0.885
- relative viability ([4]; first compound 0.253 µM): 0.798
- relative viability ([4]; first compound 2.53 µM): 0.856
- relative viability ([4]; first compound 8 µM): 0.768
- relative viability ([5]; first compound 0.08 µM): 0.723
- relative viability ([5]; first compound 0.253 µM): 0.608
- relative viability ([5]; first compound 2.53 µM): 0.738
- relative viability ([5]; first compound 8 µM): 0.665

Cell Line: SK-LU-1
- relative viability ([1]; 0.08 µM): 1.15
- relative viability ([1]; 0.253 µM): 0.876
- relative viability ([1]; 2.53 µM): 0.92
- relative viability ([1]; 8 µM): 0.655
- relative viability ([2]; first compound 0.08 µM): 0.181
- relative viability ([2]; first compound 0.253 µM): 0.181
- relative viability ([2]; first compound 2.53 µM): 0.2
- relative viability ([2]; first compound 8 µM): 0.179
- relative viability ([3]; first compound 0.08 µM): 0.914
- relative viability ([3]; first compound 0.253 µM): 0.735
- relative viability ([3]; first compound 2.53 µM): 0.774
- relative viability ([3]; first compound 8 µM): 0.373
- relative viability ([4]; first compound 0.08 µM): 0.956
- relative viability ([4]; first compound 2.53 µM): 0.79
- relative viability ([4]; first compound 8 µM): 0.309
- relative viability ([5]; first compound 0.08 µM): 0.824
- relative viability ([5]; first compound 2.53 µM): 0.719
- relative viability ([5]; first compound 8 µM): 0.455

Cell Line: SK-MES-1
- relative viability ([1]; 0.08 µM): 1.04
- relative viability ([1]; 0.253 µM): 0.936
- relative viability ([1]; 2.53 µM): 0.997
- relative viability ([1]; 8 µM): 0.752
- relative viability ([2]; first compound 0.08 µM): 0.752
- relative viability ([2]; first compound 0.253 µM): 0.69
- relative viability ([2]; first compound 2.53 µM): 0.791
- relative viability ([2]; first compound 8 µM): 0.412
- relative viability ([3]; first compound 0.08 µM): 0.468
- relative viability ([3]; first compound 0.253 µM): 0.465
- relative viability ([3]; first compound 2.53 µM): 0.56
- relative viability ([3]; first compound 8 µM): 0.515
- relative viability ([4]; first compound 0.08 µM): 1.06
- relative viability ([4]; first compound 0.253 µM): 0.94
- relative viability ([4]; first compound 2.53 µM): 0.92
- relative viability ([4]; first compound 8 µM): 0.865
- relative viability ([5]; first compound 0.08 µM): 1.15
- relative viability ([5]; first compound 0.253 µM): 0.914
- relative viability ([5]; first compound 8 µM): 0.842

Cell Line: SW 1573
- relative viability ([1]; 0.08 µM): 1.03
- relative viability ([1]; 0.253 µM): 0.98
- relative viability ([1]; 2.53 µM): 0.877
- relative viability ([1]; 8 µM): 0.456
- relative viability ([2]; first compound 0.08 µM): 0.239
- relative viability ([2]; first compound 0.253 µM): 0.255
- relative viability ([2]; first compound 2.53 µM): 0.166
- relative viability ([2]; first compound 8 µM): 0.117
- relative viability ([3]; first compound 0.08 µM): 1.18
- relative viability ([3]; first compound 0.253 µM): 0.978
- relative viability ([3]; first compound 2.53 µM): 1.12
- relative viability ([3]; first compound 8 µM): 0.963
- relative viability ([4]; first compound 0.08 µM): 0.984
- relative viability ([4]; first compound 0.253 µM): 0.86
- relative viability ([4]; first compound 2.53 µM): 0.89
- relative viability ([4]; first compound 8 µM): 0.753
- relative viability ([5]; first compound 0.08 µM): 0.662
- relative viability ([5]; first compound 0.253 µM): 0.618
- relative viability ([5]; first compound 2.53 µM): 0.366
- relative viability ([5]; first compound 8 µM): 0.425

Cell Line: UMC-11
- relative viability ([1]; 0.08 µM): 1.03
- relative viability ([1]; 0.253 µM): 0.907
- relative viability ([1]; 2.53 µM): 0.917
- relative viability ([1]; 8 µM): 0.648
- relative viability ([2]; first compound 0.08 µM): 1.03
- relative viability ([2]; first compound 0.253 µM): 1.03
- relative viability ([2]; first compound 2.53 µM): 1
- relative viability ([2]; first compound 8 µM): 0.182
- relative viability ([3]; first compound 0.08 µM): 1.08
- relative viability ([3]; first compound 0.253 µM): 0.874
- relative viability ([3]; first compound 2.53 µM): 1.07
- relative viability ([3]; first compound 8 µM): 0.468
- relative viability ([4]; first compound 0.08 µM): 0.558
- relative viability ([4]; first compound 0.253 µM): 0.578
- relative viability ([4]; first compound 2.53 µM): 0.541
- relative viability ([4]; first compound 8 µM): 0.204
- relative viability ([5]; first compound 0.08 µM): 0.395
- relative viability ([5]; first compound 0.253 µM): 0.422
- relative viability ([5]; first compound 2.53 µM): 0.379
- relative viability ([5]; first compound 8 µM): 0.36
